Test: Dosimetry from whole-body PET in mice (OLINDA/EXM, estimated for humans)
Assay type: in vivo
Procedure: Thirty-two PET scans were performed with ^18F-LW223 (17.8 ± 1.5 MBq, intravenous bolus, mean ± SEM). Naïve and MI rat scans were acquired immediately after intravenous bolus injection of ^18F-LW223. […] Dosimetry studies were conducted using mice and 240-min PET scans.
The following organs were identified as source organs: brain, heart, lung, gallbladder, liver, gut, adrenals, kidneys, and bladder. A whole-body VOI was drawn around the animal body and was used to quantify whole-body remainder activity as whole-body activity minus source-organ activity. At each time point, the measured activity of the source organs was expressed as the percentage injected dose. The residence time (τ), defined as the ratio of accumulated activity in the target organ (Ā) and injected activity (A0) (i.e., τ = Ā/A0 ([20])), was calculated as previously described ([21]). Calculated τ was normalized on the basis of the factors shown in Supplemental Table 3 ([22]–[26]) and entered into OLINDA/EXM software, version 1.0, to estimate organ doses and effective doses.
Organ Mouse Human Correction Factor
% Total body weight % Total body weight
Supplemental Table 3. Scaling factors for different organs in mice and humans based on their percentage contribution to total body weight. Data presented in this table was calculated based on previously published data.

## CC[C@@H](C)N(C)C(=O)c1nc2ccccc2c(-c2ccccc2)c1C[18F] [^18F-LW223]
Female (n = 5)
  Effective dose: 0.02 mSv/MBq
  Estimated absorbed dose, Adrenals: 3.67 ×10^−2 mGy/MBq
  Estimated absorbed dose, Brain: 0.56 ×10^−2 mGy/MBq
  Estimated absorbed dose, Breasts: 0.86 ×10^−2 mGy/MBq
  Estimated absorbed dose, Gallbladder wall: 2.46 ×10^−2 mGy/MBq
  Estimated absorbed dose, Heart wall: 1.89 ×10^−2 mGy/MBq
  Estimated absorbed dose, Kidneys: 1.54 ×10^−2 mGy/MBq
  Estimated absorbed dose, Liver: 1.95 ×10^−2 mGy/MBq
  Estimated absorbed dose, Lower large intestine wall: 9.26 ×10^−2 mGy/MBq
  Estimated absorbed dose, Lung: 3.31 ×10^−2 mGy/MBq
  Estimated absorbed dose, Muscle: 0.98 ×10^−2 mGy/MBq
  Estimated absorbed dose, Osteogenic cells: 1.52 ×10^−2 mGy/MBq
  Estimated absorbed dose, Ovaries: 1.66 ×10^−2 mGy/MBq
  Estimated absorbed dose, Pancreas: 1.26 ×10^−2 mGy/MBq
  Estimated absorbed dose, Red marrow: 0.98 ×10^−2 mGy/MBq
  Estimated absorbed dose, Skin: 0.74 ×10^−2 mGy/MBq
  Estimated absorbed dose, Small intestine: 1.30 ×10^−2 mGy/MBq
  Estimated absorbed dose, Spleen: 1.11 ×10^−2 mGy/MBq
  Estimated absorbed dose, Stomach wall: 1.15 ×10^−2 mGy/MBq
  Estimated absorbed dose, Thymus: 1.07 ×10^−2 mGy/MBq
  Estimated absorbed dose, Thyroid: 0.89 ×10^−2 mGy/MBq
  Estimated absorbed dose, Total body: 1.07 ×10^−2 mGy/MBq
  Estimated absorbed dose, Upper large intestine wall: 1.24 ×10^−2 mGy/MBq
  Estimated absorbed dose, Urinary bladder wall: 1.48 ×10^−2 mGy/MBq
  Estimated absorbed dose, Uterus: 1.29 ×10^−2 mGy/MBq
Male (n = 8)
  Effective dose: 0.02 mSv/MBq
  Estimated absorbed dose, Adrenals: 2.22 ×10^−2 mGy/MBq
  Estimated absorbed dose, Brain: 0.59 ×10^−2 mGy/MBq
  Estimated absorbed dose, Breasts: 0.72 ×10^−2 mGy/MBq
  Estimated absorbed dose, Gallbladder wall: 2.01 ×10^−2 mGy/MBq
  Estimated absorbed dose, Heart wall: 2.03 ×10^−2 mGy/MBq
  Estimated absorbed dose, Kidneys: 1.57 ×10^−2 mGy/MBq
  Estimated absorbed dose, Liver: 1.30 ×10^−2 mGy/MBq
  Estimated absorbed dose, Lower large intestine wall: 7.82 ×10^−2 mGy/MBq
  Estimated absorbed dose, Lung: 3.10 ×10^−2 mGy/MBq
  Estimated absorbed dose, Muscle: 0.80 ×10^−2 mGy/MBq
  Estimated absorbed dose, Osteogenic cells: 1.20 ×10^−2 mGy/MBq
  Estimated absorbed dose, Pancreas: 1.03 ×10^−2 mGy/MBq
  Estimated absorbed dose, Red marrow: 0.82 ×10^−2 mGy/MBq
  Estimated absorbed dose, Skin: 0.61 ×10^−2 mGy/MBq
  Estimated absorbed dose, Small intestine: 1.11 ×10^−2 mGy/MBq
  Estimated absorbed dose, Spleen: 0.91 ×10^−2 mGy/MBq
  Estimated absorbed dose, Stomach wall: 0.94 ×10^−2 mGy/MBq
  Estimated absorbed dose, Testes: 0.77 ×10^−2 mGy/MBq
  Estimated absorbed dose, Thymus: 0.90 ×10^−2 mGy/MBq
  Estimated absorbed dose, Thyroid: 0.79 ×10^−2 mGy/MBq
  Estimated absorbed dose, Total body: 0.89 ×10^−2 mGy/MBq
  Estimated absorbed dose, Upper large intestine wall: 1.00 ×10^−2 mGy/MBq
  Estimated absorbed dose, Urinary bladder wall: 1.16 ×10^−2 mGy/MBq
Female animals
  whole-body effective dose: 24.5 μSv/MBq
Male animals
  whole-body effective dose: 20.5 μSv/MBq
mouse, in vivo
  estimated dosimetry (effective dose): 0.020 mSv/MBq
naïve mice
  critical organ (dosimetry): lower large intestine
Range over male and female
  Effective dose: 20.5–24.5 μSv/MBq

From article PMC8049364, “Quantification of Macrophage-Driven Inflammation During Myocardial Infarction with ^18F-LW223, a Novel TSPO Radiotracer with Binding Independent of the rs6971 Human Polymorphism” (Journal of Nuclear Medicine, 2021)
